Experiment [1] relates to osteoblastic MC3T3 E1 cells. The experiment in a line: Proliferation assay, osteoblastic MC3T3 E1 cells. In kind it is cell-based. The conditions noted are these: for Relative in vitro potency (95% confidence limit) MC3T3 E1 cells: analog concentration 10^−13M, mean cell number relative to positive control OGP(1-14) = 1.00; for analog concentration evoking the peak inhibitory response / anti-proliferative activity (in words): absence of exogenous OGP, FIG. 8. The text has this: (§1) Some of the analogs were subjected to a dose response analysis.

Experiment [2] relates to fibroblastic NIH 3T3 cells. The experiment in a line: Proliferation assay, fibroblastic NIH 3T3 cells. Type of experiment: cell-based. The settings on record: analog concentration 10^−11M; mean cell number relative to positive control OGP(1-14) = 1.00.
Description: as §1

Experiment [3] has as its system osteoblastic MC3T3 E1 and fibroblastic NIH 3T3 cells. The experiment in a line: Proliferation assay, text statements not split by cell line. In kind it is cell-based. The settings on record: in vitro, compared to OGP(1-14) or parent analog. The protocol:
(§2) The effect of OGP analogs on osteoblastic MC3T3 E1 and fibroblastic NIH 3T3 cell proliferation was measured as before [Bab, I., et al (1992) EMBO J. 11:1867]. Some of the analogs were subjected to a dose response analysis. Otherwise the analog concentration was 10^−13M and 10^−11M in the MC3T3 E1 and NIH3T3 cell cultures, respectively. The mean cell number in triplicate culture wells was expressed as percent of a positive control triplicate dosed with OGP(1-14) (SEQ ID NO: 1). Experiments testing one dose per cell line were repeated at least four times and the activity of individual analogs expressed as the mean of results and 95% confidence limit obtained in these repetitive experiments.

Experiment [4] has as its system osteoblastic MC3T3 E1 cells. The experiment in a line: Inhibition of stimulatory effect of optimal OGP dose on MC3T3 E1 cells (FIG. 7). In kind it is cell-based. The conditions noted are these: cultures treated with 10^−13M synthetic OGP(1-14) plus antagonist. The protocol: All other cultures were treated with 10^−13M synthetic OGP(1-14) (SEQ ID NO: 1) and the indicated dose of antagonist. Data are mean±SE obtained in three culture wells per condition.
as §2

For the next experiment, the system named is ovariectomized rats. The experiment in a line: Number of bone marrow derived osteoblastic colonies from ovariectomized rats. The conditions noted are these: OVX rats, 100 ng/day/rat subcutaneous daily for eight weeks, FIG. 6. In kind it is in vivo, Sabra rats. The protocol: Twenty five female Sabra rats weighing 250 g each were subjected to bilateral ovariectomy (OVX). Additional five control animals underwent sham OVX. All animals were left untreated for 30 days. Then the OVX animals were divided into five groups, each consisting of five rats. All animals were injected subcutaneously in the nape daily for eight weeks with following solutions: One group was given to OGP(10-14) (SEQ ID NO: 61), 100 ng/day/rat. A second group was given desamino[Tyr^10]OGP(10-14) (SEQ ID NO: 4), 100 ng/day/rat. A third group was given c(Tyr-Gly-Phe-Gly-Gly) (SEQ ID NO: 35), 100 ng/day/rat. The fourth group was given retro OGP ([…] (SEQ ID NO: 60), 300 ng/day/rat. All compounds were dissolved in PBS. An additional control OVX group was given the PBS solvent only. After termination of treatment the animals were killed and the femoral and tibial bone marrow from both posterior limbs was pooled and transferred to alpha minimal essential medium (αMEM). Bone marrow cell cultures were set in 35 mm dishes, 10 dishes per animal, as described previously [Rickard, D. J., et al (1994) Biology, 161:218]. The total number of fibroblastic colonies (CFU-f) formed was determined after three weeks in culture. Immediately after, the CFU-f cultures were stained for alkaline phosphates and co-stained for mineral with alizarin-red-S. The alizarin-red-S positive colonies were considered osteoblastic. Their frequency was expressed as their percentage of the total numbers of colonies. The value for each animal was calculated as the mean percentage obtained in the 10 dishes.

Setting [5] is: listed as [N(CH3)-Tyr^10]OGP(9-14).
The mark [6] stands for this setting: listed as c[Tyr-Gly-Phe-Gly-Gly].

Entries after “also recorded” stand apart in the source; their conditions may differ. Where no end group is shown, it is not given here. [ ]: non-standard residue; d: D form. The star is where a group is joined. Biotin = O=C1N[C@H]2[C@H](CS[C@H]2CCCCC(=O)*)N1; Bpa = N[C@@H](Cc1ccc(C(=O)c2ccccc2)cc1)C(=O)O; Tyr(3-I) = N[C@@H](Cc1ccc(O)c(I)c1)C(=O)O; Desaminotyrosyl = O=C(CCc1ccc(O)cc1)*; NMeY = CN[C@@H](Cc1ccc(O)cc1)C(=O)O; Hexanoyl = CCCCCC(=O)*; NHCH2CH2OMe = COCCN*; GABA = NCCCC(=O)O; βAla = NCCC(=O)O

Here are results for 19 substances from US6479460B1, “Synthetic peptides and pseudopeptides having osteogenic activity and pharmaceutical compositions containing the same” (Yissum Research Development Company of the Hebrew …, priority 1996, dated 2002).

With “c(γ-Abu-Tyr-Gly-Phe-Gly-Asp)-OH ([GABA]YGFGD-OH; lactam (positions not given here); also: cyclic, closure site not given here)”, the “Relative in vitro potency (95% confidence limit) MC3T3 E1 cells” value in experiment [1] is reported as 0.13. Also, the “Relative in vitro potency (95% confidence limit) NIH 3T3 cells” value in experiment [2] came out at 0.07. The “OGP-like proliferative activity (in words)” value in experiment [3] was “essentially nil”.

Consider “Tyr-Gly-NH-CH(CH2C6H4(C(O)-C6H5))C(O)-Gly-Gly (YG[Bpa]GG) [[Bpa^12]OGP(10-14)]”, for which, in experiment [1], the “Relative in vitro potency (95% confidence limit) MC3T3 E1 cells” value is listed as 0.74. Further, in experiment [2], the “Relative in vitro potency (95% confidence limit) NIH 3T3 cells” value turned out to be 0.86. Further, the “OGP-like proliferative activity (in words)” value in experiment [3] is listed as “only a minor effect on the OGP-like proliferative activity”.

In the case of “Tyr-Gly-Phe-Gly-Asp (YGFGD) [[Asp^14]OGP(10-14)]”, in experiment [1], the “analog concentration evoking the peak inhibitory response” value is on record as 10^−13 M, the “anti-proliferative activity (in words)” value is reported as “anti-proliferative activity; also recorded: inhibit osteoblastic MC3T3 E1 cell proliferation dose dependently at low concentrations with reversal of this inhibition at high doses” and the “Relative in vitro potency (95% confidence limit) MC3T3 E1 cells” value is −0.39. Besides, in experiment [4], the “inhibition of stimulation by optimal OGP dose / OGP antagonism (in words)” value is recorded as “inhibitory effect at low doses”. Moreover, the “Relative in vitro potency (95% confidence limit) NIH 3T3 cells” value in experiment [2] is listed as −0.28.

Turning to “Leu-N(CH3)-CH(CH2C6H4(OH))-C(O)-Gly-Phe-Gly-Gly (L[NMeY]GFGG) [N(Me)-[Tyr^10]OGP(9-14)]”, in experiment [1], the “analog concentration evoking the peak inhibitory response” value was 10^−13 M, the “anti-proliferative activity (in words)” value is recorded as “inhibit osteoblastic MC3T3 E1 cell proliferation dose dependently at low concentrations with reversal of this inhibition at high doses” and the “Relative in vitro potency (95% confidence limit) MC3T3 E1 cells” value is −0.34. In addition, the “anti-proliferative activity (in words)” value in experiment [1] (setting [5]) was “anti-proliferative activity”. Besides, in experiment [4], the “inhibition of stimulation by optimal OGP dose / OGP antagonism (in words)” value is “highly potent OGP antagonist”. Moreover, the “inhibition of stimulation by optimal OGP dose / OGP antagonism (in words)” value in experiment [4] (setting [5]) was “inhibitory effect at low doses”. For the same substance, in experiment [2], the “Relative in vitro potency (95% confidence limit) NIH 3T3 cells” value was −0.32.

Take [Ala^11]OGP(11-14) (AFGG): the “Relative in vitro potency (95% confidence limit) MC3T3 E1 cells” value in experiment [1] came to 0.17. The “Relative in vitro potency (95% confidence limit) NIH 3T3 cells” value in experiment [2] stood at 0.07. For the same substance, the “OGP-like proliferative activity (in words)” value in experiment [3] is on record as “essentially nil”.

Regarding “[Gly^13ψ(CH2)2Gly^14]OGP(11-14) (GFGG; also: reduced ethylene bond ψ(CH2)2 between Gly13 and Gly14)”, the “Relative in vitro potency (95% confidence limit) MC3T3 E1 cells” value in experiment [1] is given as 0.15. Also, the “Relative in vitro potency (95% confidence limit) NIH 3T3 cells” value in experiment [2] turned out to be 0.08. The “OGP-like proliferative activity (in words)” value in experiment [3] was “essentially nil”.

Regarding Nα-Ac—OGP(12-14) (Ac-Phe-Gly-Gly), the “Relative in vitro potency (95% confidence limit) MC3T3 E1 cells” value in experiment [1] was determined as 0.06. Also, the “Relative in vitro potency (95% confidence limit) NIH 3T3 cells” value in experiment [2] worked out at 0.07. Besides, the “OGP-like proliferative activity (in words)” value in experiment [3] is “essentially nil”.

As to c(Tyr-Gly-Phe-Gly-Gly) (YGFGG; cyclic), in experiment [1], the “Relative in vitro potency (95% confidence limit) MC3T3 E1 cells” value is on record as 0.79. Besides, the “Relative in vitro potency (95% confidence limit) NIH 3T3 cells” value in experiment [2] is 1.12. In addition, the “OGP-like proliferative activity (in words)” value in experiment [3] is “preserved or slightly improved its in vitro activity”; in experiment [3] (setting [6]), “preserves the OGP-like in vitro activity”. Besides, the figures for the “reversal of reduction in osteoprogenitor cells / osteoblastic colonies (in words)” value in the experiment on ovariectomized rats and in the experiment with ovariectomized rats (setting [6]) were “improved over OGP(10-14)” and “improved in vivo activity”, respectively.

On to cyclo([dY]G[dF]GG), for which, in experiment [1], the “Relative in vitro potency (95% confidence limit) MC3T3 E1 cells” value worked out at 0.69. Besides, in experiment [2], the “Relative in vitro potency (95% confidence limit) NIH 3T3 cells” value was found to be 0.84. The “OGP-like proliferative activity (in words)” value in experiment [3] is given as “retained a considerable level of proliferative activity”; in experiment [3] (listed as c[D-Tyr-Gly-D-Phe-Gly-Gly]), “considerable level of proliferative activity”.

As for “Tyr(m-I)-Gly-NH-CH(CH2C6H4(C(O)C6H5))C(O)-Gly-Gly ([Tyr(3-I)]G[Bpa]GG) [[Tyr^10(m-I),BPA^12]OGP(10-14)]”, in experiment [1], the “Relative in vitro potency (95% confidence limit) MC3T3 E1 cells” value stood at 0.80. In addition, the “Relative in vitro potency (95% confidence limit) NIH 3T3 cells” value in experiment [2] is given as 0.85. Moreover, in experiment [3], the “OGP-like proliferative activity (in words)” value is reported as “remained unaltered”.

Regarding “desamino[Tyr^10]OGP(10-13)—NH(CH2)2OMe ([Desaminotyrosyl]GFG-NHCH2CH2OMe; SMILES COCCNC(=O)CNC(=O)[C@H](Cc1ccccc1)NC(=O)CNC(=O)CCc1ccc(O)cc1)”, the “Relative in vitro potency (95% confidence limit) MC3T3 E1 cells” value in experiment [1] was determined as 0.03. In addition, the “Relative in vitro potency (95% confidence limit) NIH 3T3 cells” value in experiment [2] was found to be 0.06. In addition, the “OGP-like proliferative activity (in words)” value in experiment [3] was “essentially nil”.

As to c(Gly-Gly-Phe-Gly-Tyr) (GGFGY; cyclic), the “Relative in vitro potency (95% confidence limit) MC3T3 E1 cells” value in experiment [1] is given as 0.95. Besides, the “Relative in vitro potency (95% confidence limit) NIH 3T3 cells” value in experiment [2] stood at 1.02. Also, in experiment [3], the “OGP-like proliferative activity (in words)” value was “preserved or slightly improved its in vitro activity”.

With “Nα-biotinylcaproyl[Bpa^12]OGP(10-14) ({Biotin-Hexanoyl}-YG[Bpa]GG) [Nα-biotinylcaproyl-[BPA^12]OGP(10-14)]”, the “OGP-like proliferative activity (in words)” value in experiment [3] is “remained unaltered”.

For the substance “c(β-Ala-Tyr-Gly-Phe-Gly-Asp)-OH ([βAla]YGFGD-OH; lactam (positions not given here); also: cyclic, closure site not given here) [c(β-Ma-Tyr-Gly-Phe-Gly-Asp)-OH]”, in experiment [1], the “Relative in vitro potency (95% confidence limit) MC3T3 E1 cells” value is listed as −0.08. Also, the “Relative in vitro potency (95% confidence limit) NIH 3T3 cells” value in experiment [2] was -0.19. Moreover, the “OGP-like proliferative activity (in words)” value in experiment [3] is reported as “essentially nil”.

Regarding [Pro^11]OGP(10-14) (YPFGG), in experiment [1], the “Relative in vitro potency (95% confidence limit) MC3T3 E1 cells” value is on record as 0.89. For the same substance, in experiment [2], the “Relative in vitro potency (95% confidence limit) NIH 3T3 cells” value turned out to be 0.96. The “OGP-like proliferative activity (in words)” value in experiment [3] (listed as Table 5, analog 2) is “remained essentially unaltered”.

Take “c(Tyr-Gly-Phe-Gly-Asp)-OH (YGFGD-OH; lactam (positions not given here); also: cyclic, closure site not given here)”: the “Relative in vitro potency (95% confidence limit) MC3T3 E1 cells” value in experiment [1] is given as 0.14. Further, in experiment [2], the “Relative in vitro potency (95% confidence limit) NIH 3T3 cells” value was determined as 0.11.

With [Phe^10]OGP(10-14) (FGFGG), in experiment [1], the “Relative in vitro potency (95% confidence limit) MC3T3 E1 cells” value amounted to 0.41. The “Relative in vitro potency (95% confidence limit) NIH 3T3 cells” value in experiment [2] came out at 0.32.

Regarding cyclo(GG[dF]G[dY]), the “Relative in vitro potency (95% confidence limit) MC3T3 E1 cells” value in experiment [1] was 1.03. Also, in experiment [2], the “Relative in vitro potency (95% confidence limit) NIH 3T3 cells” value is given as 1.16. In addition, in experiment [3], the “OGP-like proliferative activity (in words)” value is “preserved or slightly improved its in vitro activity”.

Take “desamino Tyr-Gly-Phe-NH-CH2-CH2-Gly (YGFGG; not fully specified; desamino Tyr10; reduced CH2NH bond Gly13-Gly14)”: the “Relative in vitro potency (95% confidence limit) MC3T3 E1 cells” value in experiment [1] is listed as 0.78. Further, in experiment [2], the “Relative in vitro potency (95% confidence limit) NIH 3T3 cells” value turned out to be 0.80.
